Data: PubChem BioAssay AID256 (DTP/NCI, 2004)
Where “and” joins values, the source holds several entries; their conditions need not be identical. Identical values can stand only once. Toxic doses and inconclusive results are not listed. The calls were made as follows: active = survival T/C of 150% or more; inactive = T/C below 125% in these data.

System: CD2F1 mice, L1210 leukemia ip, survival T/C
Assay: NCI In Vivo Anticancer Drug Screen. Data for tumor model L1210 Leukemia (intraperitoneal) in CD2F1 (CDF1) mice
Details: higher = longer survival
Procedure, shortened: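 Implant tumor; dose compound or vehicle; measure endpoint in both groups; report treated divided by control.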

[1] = endpoint: mean survival time, dose: 12.5 mg/kg/injection, schedule: Q01DX005 (ip), vehicle: water
[2] = endpoint: mean survival time, dose: 25.0 mg/kg/injection, schedule: Q01DX005 (ip), vehicle: water
[3] = endpoint: mean survival time, dose: 50.0 mg/kg/injection, schedule: Q01DX005 (ip), vehicle: water
[4] = endpoint: mean survival time, dose: 100.0 mg/kg/injection, schedule: Q01DX001 (ip), vehicle: saline with Tween-80
[5] = endpoint: mean survival time, dose: 100.0 mg/kg/injection, schedule: Q04DX002 (ip), vehicle: saline with Tween-80
[6] = endpoint: mean survival time, dose: 100.0 mg/kg/injection, schedule: Q04DX003 (ip), vehicle: saline with Tween-80
[7] = endpoint: mean survival time, dose: 200.0 mg/kg/injection, schedule: Q01DX001 (ip), vehicle: saline with Tween-80
[8] = endpoint: mean survival time, dose: 200.0 mg/kg/injection, schedule: Q04DX002 (ip), vehicle: saline with Tween-80
[9] = endpoint: mean survival time, dose: 200.0 mg/kg/injection, schedule: Q04DX003 (ip), vehicle: saline with Tween-80
[10] = endpoint: mean survival time, dose: 400.0 mg/kg/injection, schedule: Q04DX003 (ip), vehicle: saline with Tween-80
[11] = endpoint: mean survival time, dose: 100.0 mg/kg/injection, schedule: Q01DX009 (ip), vehicle: saline with Tween-80
[12] = endpoint: mean survival time, dose: 200.0 mg/kg/injection, schedule: Q01DX009 (ip), vehicle: saline with Tween-80
[13] = endpoint: mean survival time, dose: 100.0 mg/kg/injection, schedule: Q01DX001 (ip), vehicle: saline
[14] = endpoint: mean survival time, dose: 25.0 mg/kg/injection, schedule: Q01DX009 (ip), vehicle: saline with Tween-80
[15] = endpoint: mean survival time, dose: 50.0 mg/kg/injection, schedule: Q01DX009 (ip), vehicle: saline with Tween-80
[16] = endpoint: mean survival time, dose: 200.0 mg/kg/injection, schedule: Q01DX001 (ip), vehicle: saline
[17] = endpoint: mean survival time, dose: 400.0 mg/kg/injection, schedule: Q01DX001 (ip), vehicle: saline

Measured: T/C

Cn1c(=O)c2c(nc(N3CCOCC3)n2CCCNCC(O)c2ccc(O)cc2)n(C)c1=O (stereo not drawn)
inactive: [1] 102 % of control | [2] 104 % of control | [3] 100 % of control | endpoint: mean survival time, dose: 100.0 mg/kg/injection, schedule: Q01DX005 (ip), vehicle: water 98 % of control | endpoint: mean survival time, dose: 200.0 mg/kg/injection, schedule: Q01DX005 (ip), vehicle: water 104 % of control

S=C1SC2CCCCC2S1 (stereo not drawn)
inactive: endpoint: mean survival time, dose: 100.0 mg/kg/injection, schedule: Q01DX001 (ip), vehicle: Klucel (hydroxypropylcellulose) (HPC) 104 % of control | endpoint: mean survival time, dose: 200.0 mg/kg/injection, schedule: Q01DX001 (ip), vehicle: Klucel (hydroxypropylcellulose) (HPC) 107 % of control | endpoint: mean survival time, dose: 400.0 mg/kg/injection, schedule: Q01DX001 (ip), vehicle: Klucel (hydroxypropylcellulose) (HPC) 98 % of control

CC(O)CC1CCCC(C)N1 (stereo not drawn)
inactive: endpoint: mean survival time, dose: 50.0 mg/kg/injection, schedule: Q04DX003 (ip), vehicle: saline with Tween-80 90 % of control and 100 % of control | [4] 101 % of control | [5] 100 % of control and 106 % of control | [6] 100 % of control and 101 % of control | [7] 101 % of control | [8] 98 % of control and 100 % of control | [9] 93 % of control and 100 % of control

C=NCC#N
inactive: [6] 106 % of control | [9] 101 % of control

CCOC1=Cc2c(oc3c(C(C)(C)C)cc(OCC)cc23)OC(C(C)(C)C)=C1
inactive: endpoint: median survival time, dose: 1.56 mg/kg/injection, schedule: Q01DX009 (ip), vehicle: saline with Tween-80 95 % of control and 102 % of control | endpoint: median survival time, dose: 3.12 mg/kg/injection, schedule: Q01DX009 (ip), vehicle: saline with Tween-80 95 % of control and 102 % of control | endpoint: median survival time, dose: 6.25 mg/kg/injection, schedule: Q01DX009 (ip), vehicle: saline with Tween-80 101 % of control and 102 % of control | endpoint: median survival time, dose: 12.5 mg/kg/injection, schedule: Q01DX009 (ip), vehicle: saline with Tween-80 98 % of control and 103 % of control | endpoint: median survival time, dose: 25.0 mg/kg/injection, schedule: Q01DX009 (ip), vehicle: saline with Tween-80 98 % of control and 102 % of control | endpoint: median survival time, dose: 50.0 mg/kg/injection, schedule: Q01DX009 (ip), vehicle: saline with Tween-80 114 % of control and 98 % of control

COc1cc2c(cc1OC)C(CCN1C(=O)CCC1=O)=NCC2
inactive: endpoint: mean survival time, dose: 50.0 mg/kg/injection, schedule: Q01DX009 (ip), vehicle: saline sonified 96 % of control | endpoint: mean survival time, dose: 100.0 mg/kg/injection, schedule: Q01DX009 (ip), vehicle: saline sonified 102 % of control | endpoint: mean survival time, dose: 100.0 mg/kg/injection, schedule: Q04DX003 (ip), vehicle: saline sonified 98 % of control | endpoint: mean survival time, dose: 200.0 mg/kg/injection, schedule: Q01DX009 (ip), vehicle: saline sonified 100 % of control | endpoint: mean survival time, dose: 200.0 mg/kg/injection, schedule: Q04DX003 (ip), vehicle: saline sonified 103 % of control

[CH3][Sn]([CH3])([Cl])[c]1cc[c]([Sn]([CH3])([CH3])[Cl])cc1
inactive: endpoint: median survival time, dose: 0.12 mg/kg/injection, schedule: Q01DX009 (ip), vehicle: saline 100 % of control | endpoint: median survival time, dose: 0.25 mg/kg/injection, schedule: Q01DX009 (ip), vehicle: saline 101 % of control | endpoint: median survival time, dose: 0.5 mg/kg/injection, schedule: Q01DX009 (ip), vehicle: saline 105 % of control | endpoint: median survival time, dose: 1.0 mg/kg/injection, schedule: Q01DX009 (ip), vehicle: saline 101 % of control and 108 % of control | endpoint: median survival time, dose: 2.0 mg/kg/injection, schedule: Q01DX009 (ip), vehicle: saline 108 % of control and 110 % of control

OCc1ccc(Cl)cc1
inactive: [6] 96 % of control | [9] 97 % of control | [10] 100 % of control

COc1ccccc1NC(=O)Nc1ccc(Cl)cc1OC
inactive: [5] 87 % of control | [8] 94 % of control | endpoint: mean survival time, dose: 400.0 mg/kg/injection, schedule: Q04DX002 (ip), vehicle: saline with Tween-80 97 % of control

O=C1c2ccccc2C(=O)N1CNCCCNCN1C(=O)c2ccccc2C1=O
inactive: [11] 98 % of control | [12] 98 % of control | endpoint: mean survival time, dose: 400.0 mg/kg/injection, schedule: Q01DX009 (ip), vehicle: saline with Tween-80 96 % of control

CN(C)Cc1ccc2ccccc2c1
inactive: endpoint: mean survival time, dose: 50.0 mg/kg/injection, schedule: Q01DX001 (ip), vehicle: saline 102 % of control | [13] 97 % of control

Cc1ccccc1N=C(c1ccccc1)C1C(=O)c2ccccc2C1=O
inactive: endpoint: median survival time, dose: 50.0 mg/kg/injection, schedule: Q01DX005 (ip), vehicle: DMSO 103 % of control | endpoint: median survival time, dose: 100.0 mg/kg/injection, schedule: Q01DX005 (ip), vehicle: DMSO 100 % of control | endpoint: median survival time, dose: 200.0 mg/kg/injection, schedule: Q01DX005 (ip), vehicle: DMSO 103 % of control | endpoint: median survival time, dose: 400.0 mg/kg/injection, schedule: Q01DX005 (ip), vehicle: DMSO 101 % of control | endpoint: median survival time, dose: 800.0 mg/kg/injection, schedule: Q01DX005 (ip), vehicle: DMSO 100 % of control

CC(=O)OC1COCOC1C1OCOCC1OC(C)=O (stereo not drawn)
inactive: endpoint: mean survival time, dose: 50.0 mg/kg/injection, schedule: Q01DX009 (ip), vehicle: Klucel (hydroxypropylcellulose) (HPC) 102 % of control | endpoint: mean survival time, dose: 100.0 mg/kg/injection, schedule: Q01DX009 (ip), vehicle: Klucel (hydroxypropylcellulose) (HPC) 102 % of control | endpoint: mean survival time, dose: 200.0 mg/kg/injection, schedule: Q01DX009 (ip), vehicle: Klucel (hydroxypropylcellulose) (HPC) 110 % of control

CC(O)C(NC(=O)c1cnc(OCc2ccccc2)nc1N)C(=O)O (stereo not drawn)
inactive: endpoint: mean survival time, dose: 6.25 mg/kg/injection, schedule: Q01DX009 (ip), vehicle: saline with Tween-80 104 % of control | endpoint: mean survival time, dose: 12.5 mg/kg/injection, schedule: Q01DX009 (ip), vehicle: saline with Tween-80 100 % of control | [14] 104 % of control

CCCCOS(=O)(=O)c1ccc(Cl)c([N+](=O)[O-])c1
inactive: [14] 102 % of control | [15] 100 % of control | [11] 91 % of control | [6] 96 % of control | [9] 98 % of control | [10] 91 % of control

O=[N+]([O-])c1ccc(/C=C/C=C/c2ccc(Cl)cc2Cl)cc1
inactive: [6] 97 % of control | [9] 104 % of control | [10] 98 % of control

NC(=O)CSCC(N)=O
inactive: [6] 94 % of control | [9] 96 % of control | [10] 90 % of control

COC(=O)C(C(=O)OC)(C(=O)OC)C(=O)c1ccccc1
inactive: [4] 104 % of control | [7] 96 % of control | endpoint: mean survival time, dose: 400.0 mg/kg/injection, schedule: Q01DX001 (ip), vehicle: saline with Tween-80 93 % of control

O=[N+]([O-])c1ccc(/C(CBr)=N/N2CCCCC2)cc1
inactive: [13] 94 % of control | [16] 93 % of control | [17] 92 % of control

CCCN(CCC)S(=O)(=O)c1ccc(NC(=O)Oc2ccc([N+](=O)[O-])cc2)cc1
inactive: [13] 94 % of control | [16] 100 % of control | [17] 95 % of control

CCCCC(O)C(C)C (stereo not drawn)
inactive: [15] 100 % of control | [11] 103 % of control | [12] 106 % of control

O=C(N/N=C/c1ccc(Cl)cc1)c1ccc(Cl)cc1
inactive: [6] 101 % of control | [9] 93 % of control | [10] 108 % of control

CCC12C(=O)C(CC)(C3=C1c1cccc4cccc3c14)C1C(=O)OC(=O)C12 (stereo not drawn)
inactive: [6] 97 % of control | [9] 97 % of control | [10] 97 % of control

O=c1[nH]c2c(ccc3cnccc32)c2c1CCC2
inactive: endpoint: mean survival time, dose: 3.12 mg/kg/injection, schedule: Q01DX009 (ip), vehicle: saline 107 % of control | endpoint: mean survival time, dose: 6.25 mg/kg/injection, schedule: Q01DX009 (ip), vehicle: saline 100 % of control and 110 % of control | endpoint: mean survival time, dose: 12.5 mg/kg/injection, schedule: Q01DX009 (ip), vehicle: saline 96 % of control and 107 % of control | endpoint: mean survival time, dose: 25.0 mg/kg/injection, schedule: Q01DX009 (ip), vehicle: saline 119 % of control and 111 % of control | endpoint: mean survival time, dose: 50.0 mg/kg/injection, schedule: Q01DX009 (ip), vehicle: saline 88 % of control and 96 % of control

NC(=S)c1ccc(OCCCc2ccccc2)cc1
inactive: [14] 95 % of control | [15] 95 % of control

N#Cc1[nH]nc2ncnc(NC(=O)C(F)(F)F)c12
inactive: endpoint: mean survival time, dose: 6.25 mg/kg/injection, schedule: Q01DX005 (ip), vehicle: water 111 % of control | [1] 96 % of control | [2] 107 % of control | [3] 96 % of control

CC1NC(C)SC(C)S1 (stereo not drawn)
inactive: [6] 101 % of control | [9] 98 % of control
